What was measured:
[1] = system: Glomerella lacenarium (Colletotrichum lacenarium); test: Glomerella lacenarium (Colletotrichum lacenarium) liquid culture / cucumber / preventative (anthracnose); type: cell-based; details: 20 ppm in the applied formulation, liquid culture in PDB, 24° C., 3 to 4 days after application, read-out: disease control (inhibition of growth, photometric) compared to untreated control
How it was run: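 At 20 ppm in the applied formulation, compounds were mixed with fungal spores in potato dextrose broth and held at 24° C. After 3–4 days, photometric growth measurement gave percent antifungal activity relative to untreated control.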

[2] = system: Puccinia recondita f. Sp. Tritici; test: Puccinia recondita f. sp. tritici / wheat / leaf disc curative (brown rust); type: in vivo; details: foliar, 200 ppm in the applied formulation, wheat leaf segments, curative (applied 1 day after inoculation), assessed 6 to 8 days after application, read-out: disease control compared to untreated control leaf disks
How it was run: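 Curative treatment: formulated compound in water was applied 1 day post-inoculation to spore-inoculated wheat cv. Kanzler segments held on agar. Segments stayed at 19° C and 75% relative humidity (12 h photoperiod after application), and disease control relative to untreated checks was assessed 6 to 8 days later.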

Phakopsora pachyrhizi = Phakopsora pachyrhizi / soybean / leaf disc preventative (Asian soybean rust); type: in vivo; details: foliar, 200 ppm in the applied formulation, soybean leaf disks, assessed 12 to 14 days after application, read-out: disease control compared to untreated control leaf disks
How it was run: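 Soybean leaf discs on water agar were sprayed with formulated compound diluted in water, then inoculated one day later with spore suspension on the lower leaf surface. Held 24-36 h dark at 20° C., 75% RH, then 12 h light/day; percent disease control versus untreated scored 12 to 14 days after application.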

[3] = system: Puccinia recondita f. Sp. Tritici; test: Puccinia recondita f. sp. tritici / wheat / leaf disc preventative (brown rust); type: in vivo; details: foliar, 200 ppm in the applied formulation, wheat leaf segments, preventative, assessed 7 to 9 days after application, read-out: disease control compared to untreated control leaf disks
How it was run: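 Wheat cv. Kanzler leaf segments on agar sprayed with formulated compound in water, inoculated with rust spores 1 day later. Incubated at 19° C, 75% rh, 12 h light/12 h dark; percent disease control versus untreated scored 7 to 9 days after application; tested at 200 ppm.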

CC(C)(C)C(=O)C(=O)NCc1ccc(-c2noc(C(F)(F)F)n2)c(F)c1F [Compound 1.49, N-[[2,3-difluoro-4-[5-(trifluoromethyl)-1,2,4-oxadiazol-3-yl]phenyl]methyl]-3,3-dimethyl-2-oxo-butanamide]
≥ 80%: inhibition at 20 ppm [1] | pest or weed control at 200 ppm [2] | pest or weed control at 200 ppm (Phakopsora pachyrhizi) | pest or weed control at 200 ppm [3]

CC(C)CC(=O)C(=O)NCc1ccc(-c2noc(C(F)(F)F)n2)cc1 [Compound 1.50, 4-methyl-2-oxo-N-[[4-[5-(trifluoromethyl)-1,2,4-oxadiazol-3-yl]phenyl]methyl]pentanamide]
≥ 80%: inhibition at 20 ppm [1] | pest or weed control at 200 ppm [2] | pest or weed control at 200 ppm (Phakopsora pachyrhizi) | pest or weed control at 200 ppm [3]

O=C(NCc1ccc(-c2noc(C(F)(F)F)n2)cc1)C(=O)c1cccs1 [Compound 1.51, 2-oxo-2-(2-thienyl)-N-[[4-[5-(trifluoromethyl)-1,2,4-oxadiazol-3-yl]phenyl]methyl]acetamide]
≥ 80%: inhibition at 20 ppm [1] | pest or weed control at 200 ppm [2] | pest or weed control at 200 ppm (Phakopsora pachyrhizi) | pest or weed control at 200 ppm [3]

CC(C)(C)C(=O)C(=O)NCc1ccc(-c2noc(C(F)(F)F)n2)cc1 [Compound 1.52, 3,3-dimethyl-2-oxo-N-[[4-[5-(trifluoromethyl)-1,2,4-oxadiazol-3-yl]phenyl]methyl]butanamide]
≥ 80%: inhibition at 20 ppm [1] | pest or weed control at 200 ppm [2] | pest or weed control at 200 ppm (Phakopsora pachyrhizi) | pest or weed control at 200 ppm [3]

CCC(=O)C(=O)NCc1ccc(-c2noc(C(F)(F)F)n2)cc1 [Compound 1.53, 2-oxo-N-[[4-[5-(trifluoromethyl)-1,2,4-oxadiazol-3-yl]phenyl]methyl]butanamide]
≥ 80%: inhibition at 20 ppm [1] | pest or weed control at 200 ppm [2] | pest or weed control at 200 ppm (Phakopsora pachyrhizi) | pest or weed control at 200 ppm [3]

CON(Cc1ccc(-c2noc(C(F)(F)F)n2)cc1F)C(=O)C(=O)CC(C)C [Compound 1.55, N-[[2-fluoro-4-[5-(trifluoromethyl)-1,2,4-oxadiazol-3-yl]phenyl]methyl]-N-methoxy-4-methyl-2-oxo-pentanamide]
≥ 80%: inhibition at 20 ppm [1] | pest or weed control at 200 ppm [2] | pest or weed control at 200 ppm (Phakopsora pachyrhizi) | pest or weed control at 200 ppm [3]

CCC(=O)C(=O)N(Cc1ccc(-c2noc(C(F)(F)F)n2)cc1F)OC [Compound 1.58, N-[[2-fluoro-4-[5-(trifluoromethyl)-1,2,4-oxadiazol-3-yl]phenyl]methyl]-N-methoxy-2-oxo-butanamide]
≥ 80%: inhibition at 20 ppm [1] | pest or weed control at 200 ppm [2] | pest or weed control at 200 ppm (Phakopsora pachyrhizi) | pest or weed control at 200 ppm [3]

CCC(=O)C(=O)NCc1ccc(-c2noc(C(F)(F)F)n2)cc1Cl [Compound 1.64, N-[[2-chloro-4-[5-(trifluoromethyl)-1,2,4-oxadiazol-3-yl]phenyl]methyl]-2-oxo-butanamide]
≥ 80%: inhibition at 20 ppm [1] | pest or weed control at 200 ppm [2] | pest or weed control at 200 ppm (Phakopsora pachyrhizi) | pest or weed control at 200 ppm [3]

O=C(NCc1c(F)cc(-c2noc(C(F)(F)F)n2)cc1F)C(=O)c1cccs1 [Compound 1.70, N-[[2,6-difluoro-4-[5-(trifluoromethyl)-1,2,4-oxadiazol-3-yl]phenyl]methyl]-2-oxo-2-(2-thienyl)acetamide]
≥ 80%: inhibition at 20 ppm [1] | pest or weed control at 200 ppm [2] | pest or weed control at 200 ppm (Phakopsora pachyrhizi) | pest or weed control at 200 ppm [3]

CC(C)(C)C(=O)C(=O)NCc1c(F)cc(-c2noc(C(F)(F)F)n2)cc1F [Compound 1.71, N-[[2,6-difluoro-4-[5-(trifluoromethyl)-1,2,4-oxadiazol-3-yl]phenyl]methyl]-3,3-dimethyl-2-oxo-butanamide]
≥ 80%: inhibition at 20 ppm [1] | pest or weed control at 200 ppm [2] | pest or weed control at 200 ppm (Phakopsora pachyrhizi) | pest or weed control at 200 ppm [3]

CON(Cc1ccc(-c2noc(C(F)(F)F)n2)cc1)C(=O)C(=O)CC(C)C [Compound 1.72, N-methoxy-4-methyl-2-oxo-N-[[4-[5-(trifluoromethyl)-1,2,4-oxadiazol-3-yl]phenyl]methyl]pentanamide]
≥ 80%: inhibition at 20 ppm [1] | pest or weed control at 200 ppm [2] | pest or weed control at 200 ppm (Phakopsora pachyrhizi) | pest or weed control at 200 ppm [3]

CON(Cc1ccc(-c2noc(C(F)(F)F)n2)cc1)C(=O)C(=O)C(C)(C)C [Compound 1.74, N-methoxy-3,3-dimethyl-2-oxo-N-[[4-[5-(trifluoromethyl)-1,2,4-oxadiazol-3-yl]phenyl]methyl]butanamide]
≥ 80%: inhibition at 20 ppm [1] | pest or weed control at 200 ppm [2] | pest or weed control at 200 ppm (Phakopsora pachyrhizi) | pest or weed control at 200 ppm [3]

O=C(NCc1ccc(-c2noc(C(F)(F)F)n2)cc1)C(=O)c1ccccc1 [Compound 1.75, 2-oxo-2-phenyl-N-[[4-[5-(trifluoromethyl)-1,2,4-oxadiazol-3-yl]phenyl]methyl]acetamide]
≥ 80%: inhibition at 20 ppm [1] | pest or weed control at 200 ppm [2] | pest or weed control at 200 ppm (Phakopsora pachyrhizi) | pest or weed control at 200 ppm [3]

CON(Cc1ccc(-c2noc(C(F)(F)F)n2)cc1)C(=O)C(=O)c1ccccc1 [Compound 1.76, N-methoxy-2-oxo-phenyl-N-[[4-[5-(trifluoromethyl)-1,2,4-oxadiazol-3-yl]phenyl]methyl]acetamide]
≥ 80%: inhibition at 20 ppm [1] | pest or weed control at 200 ppm [2] | pest or weed control at 200 ppm (Phakopsora pachyrhizi) | pest or weed control at 200 ppm [3]

O=C(NCc1ccc(-c2noc(C(F)(F)F)n2)cc1F)C(=O)c1ccco1 [Compound 1.77, N-[[2-fluoro-4-[5-(trifluoromethyl)-1,2,4-oxadiazol-3-yl]phenyl]methyl]-2-(2-furyl)-2-oxo-acetamide]
≥ 80%: inhibition at 20 ppm [1] | pest or weed control at 200 ppm [2] | pest or weed control at 200 ppm (Phakopsora pachyrhizi) | pest or weed control at 200 ppm [3]

CCC(=O)C(=O)NCc1ccc(-c2noc(C(F)(F)F)n2)c(F)c1 [Compound 1.78, N-[[3-fluoro-4-[5-(trifluoromethyl)-1,2,4-oxadiazol-3-yl]phenyl]methyl]-2-oxo-butanamide]
≥ 80%: inhibition at 20 ppm [1] | pest or weed control at 200 ppm [2] | pest or weed control at 200 ppm (Phakopsora pachyrhizi) | pest or weed control at 200 ppm [3]

O=C(NCc1ccc(-c2noc(C(F)(F)F)n2)c(F)c1)C(=O)c1ccco1 [Compound 1.79, N-[[3-fluoro-4-[5-(trifluoromethyl)-1,2,4-oxadiazol-3-yl]phenyl]methyl]-2-(2-furyl)-2-oxo-acetamide]
≥ 80%: inhibition at 20 ppm [1] | pest or weed control at 200 ppm [2] | pest or weed control at 200 ppm (Phakopsora pachyrhizi) | pest or weed control at 200 ppm [3]
